Positions of bridges follow the written chain, without caps; N, C: chain ends. Residues, ends and D or L forms follow the SMILES beside them.
Legend:
HIV-1 positive sera = experiment: ELISA, single peptides identifying HIV-1 positive sera; format: binding, human; conditions: single gp41 or gp120 peptide
Description: According to this test a peptide or a peptide mixture of the present invention is adsorbed onto the wells of a microtiter plate. The wells are then treated with sera to be tested. After washing, anti-human IgG labeled with peroxidase is added to the wells. The determination of the peroxidase is performed with a corresponding substrate, e.g. with o-phenylene diamine. Also in this procedure the peroxidase can be exchanged by another label, e.g. by a radioactive or fluorescence label.
(§1) Each well of the microtiter plate is saturated with 100 µl of a solution containing a peptide or mixture of peptides (5 µg/ml) and left overnight. The wells are emptied and washed twice with a washing buffer (Tris, 0.043M; NaCl, 0.5M;thimerosal, 0.01% w/v; Tween 20, 0.05% v/v; pH 7.4). The wells are then saturated with […] of washing buffer for 1 hr. at 37°C and washed once with the same buffer. Serum samples to be analyzed are diluted with specimen buffer (washing buffer plus casein, 0.05% w/v). The bells are rinsed with washing buffer prior to the addition of the diluted serum sample (0.1 ml). These are left to incubate for 1 hr. at room temperature. The wells are then emptied, washed twice rapidly and then once for two minutes with washing buffer. […] The wells are then emptied and washed twice rapidly with washing buffer and then five times in which the buffer was in contact with the well 2 minutes per washing. The substrate solution (3,3', 5,5'-tetramethylbenzidine, 8 mg per ml of DMSO) is diluted with 100 volumes 0.1 M citrate-acetate buffer, pH 5.6 containing 0.1% v/v of 30% H2O2 and added to each well (0.1 ml per well). After 10 minutes the contents of each well is treated with 0.1 ml 2N H2SO4 and the optical density read at 450 nm. All determinations are done in duplicate.

[1] = Stability of linear and cyclic peptide in coating buffers (HPLC, Ellman's test); format: physicochemical; conditions: 10% acetic acid (pH 2.7)
From the text: (§2) Even though results presented in TABLE 5 clearly show the superiority of cyclic peptides over their linear counterpart in detecting HIV-1-antibodies, that increased sensitivity could have been underestimated because of probable cyclization and polymerization of the linear peptide after solubilization in a carbonate buffer (pH 9.6). That experiment was repeated with the linear 87 and cyclic 87c peptides dissolved in a carbonate buffer (pH 9.6) as before and also in 10% acetic acid (pH 2.7). […] It is believed that cyclization and polymerization also occured in the wells of the microtiter plates although the exact proportion of cyclic peptide bound to the plates versus linear has not been as yet determined.

[2] = tested on: HIV-1 positive serum samples; experiment: ELISA serum titers on plates coated with cyclic versus linear peptide; format: binding, human; conditions: for serum titer (serum dilution giving an absorbancy reading of 1.0): coated at 10 µg/ml
From the text: as §2
Plates used in this experiment were coated with solutions of peptides at 10 µg/ml. (Experimental results of TABLE 5 were obtained with plates coated with peptides at 0.5 µg/ml). Four different HIV-1 positive serum samples were serially diluted and their titers determined. The titer was defined as the serum dilution giving an absorbancy reading of 1.0 in the conditions of the ELISA procedure already described.
The ratios of sensitivities measured with the cyclic peptide over the linear 87 peptide vary between 1.3 and 2.2 with an average of 1.8. These ratios are even larger, varying from 3.0 to 4.5, when the sensitivity of the ELISA test using the cyclic 87c peptide is compared using conditions (acidic pH) where the linear 87 peptide remains linear and is not allowed to cyclize or polymerize.
as §1

HIV-1-antibodies = experiment: ELISA optical density of serially diluted sera, cyclic versus non-cyclic peptides; format: binding, human; conditions: coated at 0.5 µg/ml
From the text: TABLE 5 is provided to illustrate the sensitivity of cyclic versus non-cyclic peptides in the ELISA test by comparing the results of some sera at various dilutions.
as §2, with “determined. […]” for “determined.”
as §1

CC[C@H](C)[C@H](NC(=O)CNC(=O)[C@H](CC(C)C)NC(=O)[C@H](CC(C)C)NC(=O)[C@H](CCC(N)=O)NC(=O)[C@H](CCC(N)=O)NC(=O)[C@H](CC(=O)O)NC(=O)[C@H](CCCCN)NC(=O)[C@H](CC(C)C)NC(=O)[C@H](Cc1ccc(O)cc1)NC(=O)[C@H](CCCNC(=N)N)NC(=O)[C@H](CCC(=O)O)NC(=O)[C@@H](NC(=O)[C@H](C)NC(=O)[C@H](CC(C)C)NC(=O)[C@@H](NC(=O)[C@@H](N)CCCNC(=N)N)[C@@H](C)CC)C(C)C)C(=O)N[C@@H](Cc1c[nH]c2ccccc12)C(=O)NCC(=O)N[C@H]1CSSC[C@@H](C(=O)N[C@H](C(=O)N[C@H](C(=O)N[C@@H](C)C(=O)N[C@H](C(=O)N2CCC[C@H]2C(=O)N[C@@H](Cc2c[nH]c3ccccc23)C(=O)N[C@@H](CC(N)=O)C(=O)N[C@@H](C)C(=O)N[C@@H](CO)C(=O)O)C(C)C)[C@@H](C)O)[C@@H](C)O)NC(=O)[C@H]([C@@H](C)CC)NC(=O)[C@H](CC(C)C)NC(=O)[C@H](CCCCN)NC(=O)CNC(=O)[C@H](CO)NC1=O [Peptide 87c] (H-RILAVERYLKDQQLLGIWGCSGKLICTTAVPWNAS-OH; disulfide 20-26)
% Positive Sera correctly Idenfitied (HIV-1 positive sera): 99% | stability in solution (HPLC, Ellman's test) [1]: remained cyclic | A B (titer 87c cyclic over titer 87 linear) ([2]; 10% Acetic Acid (pH 2.7), serum M-5): 3.0 | A B (titer 87c cyclic over titer 87 linear) ([2]; 10% Acetic Acid (pH 2.7), serum M-7): 3.9 | A B (titer 87c cyclic over titer 87 linear) ([2]; 10% Acetic Acid (pH 2.7), serum M-8): 4.5 | A B (titer 87c cyclic over titer 87 linear) ([2]; 10% Acetic Acid (pH 2.7), serum M-16): 3.7 | A B (titer 87c cyclic over titer 87 linear) ([2]; Carbonate Bicarbonate 0.1M (pH 9.6), serum M-5): 1.3 | A B (titer 87c cyclic over titer 87 linear) ([2]; Carbonate Bicarbonate 0.1M (pH 9.6), serum M-7): 1.8 | A B (titer 87c cyclic over titer 87 linear) ([2]; Carbonate Bicarbonate 0.1M (pH 9.6), serum M-8): 2.2 | A B (titer 87c cyclic over titer 87 linear) ([2]; Carbonate Bicarbonate 0.1M (pH 9.6), serum M-16): 1.7 | ratios of sensitivities measured with the cyclic peptide over the linear 87 peptide, average ([2]; carbonate buffer (pH 9.6), average over four sera): 1.8 | serum titer (serum dilution giving an absorbancy reading of 1.0) ([2]; coating buffer 10% Acetic Acid (pH 2.7), serum M-5): 13 500 | serum titer (serum dilution giving an absorbancy reading of 1.0) ([2]; coating buffer 10% Acetic Acid (pH 2.7), serum M-7): 9 000 | serum titer (serum dilution giving an absorbancy reading of 1.0) ([2]; coating buffer 10% Acetic Acid (pH 2.7), serum M-8): 6 300 | serum titer (serum dilution giving an absorbancy reading of 1.0) ([2]; coating buffer 10% Acetic Acid (pH 2.7), serum M-16): 56 000 | serum titer (serum dilution giving an absorbancy reading of 1.0) ([2]; coating buffer Carbonate Bicarbonate 0.1M (pH 9.6), serum M-5): 13 500 | serum titer (serum dilution giving an absorbancy reading of 1.0) ([2]; coating buffer Carbonate Bicarbonate 0.1M (pH 9.6), serum M-7): 11 000 | serum titer (serum dilution giving an absorbancy reading of 1.0) ([2]; coating buffer Carbonate Bicarbonate 0.1M (pH 9.6), serum M-8): 6500 | serum titer (serum dilution giving an absorbancy reading of 1.0) ([2]; coating buffer Carbonate Bicarbonate 0.1M (pH 9.6), serum M-16): 56 000 | Relative performance in ELISA (optical density) (HIV-1-antibodies; serum 87V103, dilution 1/50): 0.011 optical density units | Relative performance in ELISA (optical density) (HIV-1-antibodies; serum 1428, dilution 1/50): >2.0 optical density units | Relative performance in ELISA (optical density) (HIV-1-antibodies; serum M-5, dilution 1 50): >2.0 optical density units | Relative performance in ELISA (optical density) (HIV-1-antibodies; serum M-5, dilution 1/100): >2.0 optical density units | Relative performance in ELISA (optical density) (HIV-1-antibodies; serum M-5, dilution 1/200): >2.0 optical density units | Relative performance in ELISA (optical density) (HIV-1-antibodies; serum M-5, dilution 1/400): >2.0 optical density units | Relative performance in ELISA (optical density) (HIV-1-antibodies; serum M-5, dilution 1/800): 1.854 optical density units | Relative performance in ELISA (optical density) (HIV-1-antibodies; serum M-7, dilution 1/50): >2.0 optical density units | Relative performance in ELISA (optical density) (HIV-1-antibodies; serum M-7, dilution 1/100): >2.0 optical density units | Relative performance in ELISA (optical density) (HIV-1-antibodies; serum M-7, dilution 1/200): 1.729 optical density units | Relative performance in ELISA (optical density) (HIV-1-antibodies; serum M-7, dilution 1/400): 1.348 optical density units | Relative performance in ELISA (optical density) (HIV-1-antibodies; serum M-7, dilution 1/800): 0.611 optical density units | Relative performance in ELISA (optical density) (HIV-1-antibodies; serum M-8, dilution 1/50): >2.0 optical density units | Relative performance in ELISA (optical density) (HIV-1-antibodies; serum M-8, dilution 1/100): >2.0 optical density units | Relative performance in ELISA (optical density) (HIV-1-antibodies; serum M-8, dilution 1/200): 1.655 optical density units | Relative performance in ELISA (optical density) (HIV-1-antibodies; serum M-8, dilution 1/400): 1.064 optical density units | Relative performance in ELISA (optical density) (HIV-1-antibodies; serum M-8, dilution 1/800): 0.384 optical density units | Relative performance in ELISA (optical density) (HIV-1-antibodies; serum M-16, dilution 1/50): >2.0 optical density units | Relative performance in ELISA (optical density) (HIV-1-antibodies; serum M-16, dilution 1/100): >2.0 optical density units | Relative performance in ELISA (optical density) (HIV-1-antibodies; serum M-16, dilution 1/200): >2.0 optical density units | Relative performance in ELISA (optical density) (HIV-1-antibodies; serum M-16, dilution 1/400): >2.0 optical density units | Relative performance in ELISA (optical density) (HIV-1-antibodies; serum M-16, dilution 1/800): 1.962 optical density units
